Assay results published in patent US20240316001A1, “USE OF PHARMACEUTICAL COMPOSITION COMPRISING CHLOROGENIC ACID IN PREPARATION OF DRUG FOR TREATING EARLY ALZHEIMER'S DISEASE” (SICHUAN JIUZHANG BIOLOGICAL SCIENCE AND TECHNOLOGY CO., LTD., priority 2021, published 2024).

Legend:
[1] = tested on: chronic cerebral hypoperfusion model rats (bilateral carotid artery ligation; simulated early AD); assay: Morris water maze space exploration experiment in chronic cerebral hypoperfusion model rats; type: in vivo, Sprague Dawley (SD) rats; details: for searching time in the quadrant of the original platform compared with the model group (in words): Morris water maze space exploration, versus model group; for Time spent in the original platform quadrant: platform removed, after the orientation navigation experiment, CGA 60 mg/kg/d i.p., 3-coumaroylquinic acid alone 0.03 mg/kg/d i.p., sodium oligomannate 100 mg/kg/d gavage, mean±SD, n=10
Excerpt: (§1) In this experiment, the occurrence of mild AD in humans after chronic cerebral hypoperfusion was simulated by performing bilateral carotid artery ligation in rats, and the intervention of the pharmaceutical composition according to the present invention on the learning and memory ability of these rats was observed, in order to investigate the therapeutic effect of the pharmaceutical composition according to the present invention on early AD.
(§2) 2.1. Experimental Animals: 6-8 Week Old, SPF Grade, Male Sprague Dawley (SD) Healthy Rats, Weighing 280-300 g.
(§3) A chronic cerebral hypoperfusion model was established by bilateral carotid artery ligation. Rats were acclimated to the environment for 1 week, and then fasted for 12 h and water-deprivated for 4 h before surgery. The rats were anesthetized with 0.4% pentobarbital sodium (0.5 mL/100 g i.p.), and fixed in a supine position on the operating table. Hair was removed from the skin in front of the neck. The naked skin was disinfected with iodine, and then the rats were incised in the middle of the neck. The subcutaneous superficial fascia was bluntly separated, and then the sternocleidomastoideole and sternohyoid muscle were carefully separated along both sides of the trachea, with arterial sheath visible; the bilateral common carotid arteries were separated and exposed with a glass needle, to bury the thread, and then double ligated with silk thread. The blood vessels between the two ligation points were cut off. The incision was sutured layer by layer and disinfected, followed by waiting for awakening of rats. During the operation, incandescent lamp irradiation was used to maintain the anal temperature of rats at 36.5° C.-37.5° C. After surgery, each rat was placed in a single cage to prevent suffocation.
(§4) 10 healthy SD rats with suitable body weight (within the required range) were randomly selected as the normal control group. 80 successfully modeled rats were randomly divided into 8 groups, with 10 rats in each group. They were named as follows: model control group (n=10), CGA treatment group (n=10), 3-coumaroylquinic acid treatment group (n=10), CGA+3-coumaroylquinic acid (100:0.01) treatment group (n=10), CGA+3-coumaroylquinic acid (100:0.05) treatment group (n=10), CGA+3-coumaroylquinic acid (100:0.5) treatment group (n=10), CGA+3-coumaroylquinic acid (100:1) treatment group (n=10), sodium oligomannate treatment group (n=10), and thus, there are […], along with the normal control group (n=10), for a total of 90 rats.
In this experiment, except for sodium oligomannate treatment group, which was administered by gavage, all other treatment groups were administered by intraperitoneal injection to each group of rats. […]

[2] = tested on: chronic cerebral hypoperfusion model rats (bilateral carotid artery ligation; simulated early AD); assay: Morris water maze orientation navigation experiment in chronic cerebral hypoperfusion model rats; type: in vivo, Sprague Dawley (SD) rats; details: for average escape latency in Morris water maze experiment / searching distance in Morris water maze experiment: after 20 consecutive days of administration, CGA 60 mg/kg/d i.p., 3-coumaroylquinic acid alone 0.03 mg/kg/d i.p., sodium oligomannate 100 mg/kg/d gavage, mean±SD, n=10; for escape latency and searching distance of rats compared with the model group (in words): Morris water maze, over the 5-day experiment, versus model group
Excerpt: as §1, §2, §3, §4
In this experiment, except for sodium oligomannate treatment group, which was administered by gavage, all other treatment groups were administered by intraperitoneal injection to each group of rats. The blank group and model group were given the solvent physiological saline by intraperitoneal injection. Rats in each treatment group were administrated one week after modeling surgery. Then, after 20 consecutive days of administration, the experiment was carried out. The administration continued during the experiment. At the same time, both the blank group and the model group were given an equal amount of physiological saline. […]

Row | SMILES | searching time in the quadrant of the original platform compared with the model group (in words) [1] | Time spent in the original platform quadrant [1] [s] | average escape latency in Morris water maze experiment ([2]; Day 1) [s] | searching distance in Morris water maze experiment ([2]; Day 1) [cm] | average escape latency in Morris water maze experiment ([2]; Day 2) [s] | searching distance in Morris water maze experiment ([2]; Day 2) [cm] | average escape latency in Morris water maze experiment ([2]; Day 3) [s] | searching distance in Morris water maze experiment ([2]; Day 3) [cm] | average escape latency in Morris water maze experiment ([2]; Day 4) [s] | searching distance in Morris water maze experiment ([2]; Day 4) [cm] | average escape latency in Morris water maze experiment ([2]; Day 5) [s] | searching distance in Morris water maze experiment ([2]; Day 5) [cm] | escape latency and searching distance of rats compared with the model group (in words) [2]
1 | O=C(/C=C/c1ccc(O)c(O)c1)O[C@@H]1C[C@](O)(C(=O)O)C[C@@H](O)[C@H]1O [CGA, 3-O-caffeoylquinic acid] | almost no extension | 32.6 ± 8.5 | 95.4 ± 15.1 | 1125.6 ± 108.4 | 89.2 ± 17.5 | 944.3 ± 102.5 | 75.6 ± 12.6 | 844.8 ± 99.1 | 70.7 ± 14.5 | 560.9 ± 64.2 | 46.3 ± 10.6 | 395.2 ± 42.7 | almost no improvement
2 | O=C(/C=C/c1ccc(O)cc1)O[C@@H]1C[C@](O)(C(=O)O)C[C@@H](O)[C@H]1O [3-coumaroylquinic acid] | almost no extension | 30.2 ± 7.8 | 98.1 ± 16.8 | 1127.3 ± 117.2 | 94.2 ± 15.3 | 954.5 ± 119.3 | 81.5 ± 13.7 | 892.6 ± 106.2 | 75.4 ± 16.3 | 577.1 ± 72.5 | 51.8 ± 14.2 | 407.1 ± 44.3 | almost no improvement
